From ChEMBL document CHEMBL4359816, “Discovery and Optimization of Quinolinone Derivatives as Potent, Selective, and Orally Bioavailable Mutant Isocitrate Dehydrogenase 1 (mIDH1) Inhibitors” (J Med Chem, 2019)

What was measured:
[1] = Half-life in rat at 1 mg/kg, iv or 5 mg/kg, po; assay type: ADME, organism-based; conditions: in vivo
Cytochrome P450 3A4 [2] = molecular target: T1, Cytochrome P450 3A4 (Homo sapiens, UniProt P08684); test: Time dependent inhibition of CYP3A4 (unknown origin) at <5 uM pre-incubated for 30 mins followed by midazolam substrate addition in presence of NADPH; assay type: ADME
T1 sequence (P08684 whole entry): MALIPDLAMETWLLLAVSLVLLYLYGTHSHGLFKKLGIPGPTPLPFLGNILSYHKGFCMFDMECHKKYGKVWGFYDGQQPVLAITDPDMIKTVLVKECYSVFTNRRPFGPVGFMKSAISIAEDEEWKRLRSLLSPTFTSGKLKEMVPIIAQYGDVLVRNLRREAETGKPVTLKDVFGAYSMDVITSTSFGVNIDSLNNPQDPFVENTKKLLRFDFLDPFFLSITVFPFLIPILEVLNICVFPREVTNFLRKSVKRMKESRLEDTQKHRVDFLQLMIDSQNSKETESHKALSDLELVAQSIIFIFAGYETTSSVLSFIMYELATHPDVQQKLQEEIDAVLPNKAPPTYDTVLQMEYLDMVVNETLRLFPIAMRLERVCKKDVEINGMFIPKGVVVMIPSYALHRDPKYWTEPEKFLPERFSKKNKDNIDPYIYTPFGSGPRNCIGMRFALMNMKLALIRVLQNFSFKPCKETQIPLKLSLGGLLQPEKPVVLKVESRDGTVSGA

Mus musculus [3] = assay type: functional, BALB/c
[4] = Total AUC (infinity) in dog at 0.5 mg/kg, iv; assay type: ADME, organism-based, Canis lupus familiaris; design: dose 0.5 mg/kg, time AUCmax, route intravenous; conditions: in vivo
[5] = molecular target: Voltage-gated inwardly rectifying potassium channel KCNH2 (Homo sapiens, UniProt Q12809); test: Inhibition of human ERG by patch clamp method
Chain of Voltage-gated inwardly rectifying potassium channel KCNH2 (Q12809 whole entry): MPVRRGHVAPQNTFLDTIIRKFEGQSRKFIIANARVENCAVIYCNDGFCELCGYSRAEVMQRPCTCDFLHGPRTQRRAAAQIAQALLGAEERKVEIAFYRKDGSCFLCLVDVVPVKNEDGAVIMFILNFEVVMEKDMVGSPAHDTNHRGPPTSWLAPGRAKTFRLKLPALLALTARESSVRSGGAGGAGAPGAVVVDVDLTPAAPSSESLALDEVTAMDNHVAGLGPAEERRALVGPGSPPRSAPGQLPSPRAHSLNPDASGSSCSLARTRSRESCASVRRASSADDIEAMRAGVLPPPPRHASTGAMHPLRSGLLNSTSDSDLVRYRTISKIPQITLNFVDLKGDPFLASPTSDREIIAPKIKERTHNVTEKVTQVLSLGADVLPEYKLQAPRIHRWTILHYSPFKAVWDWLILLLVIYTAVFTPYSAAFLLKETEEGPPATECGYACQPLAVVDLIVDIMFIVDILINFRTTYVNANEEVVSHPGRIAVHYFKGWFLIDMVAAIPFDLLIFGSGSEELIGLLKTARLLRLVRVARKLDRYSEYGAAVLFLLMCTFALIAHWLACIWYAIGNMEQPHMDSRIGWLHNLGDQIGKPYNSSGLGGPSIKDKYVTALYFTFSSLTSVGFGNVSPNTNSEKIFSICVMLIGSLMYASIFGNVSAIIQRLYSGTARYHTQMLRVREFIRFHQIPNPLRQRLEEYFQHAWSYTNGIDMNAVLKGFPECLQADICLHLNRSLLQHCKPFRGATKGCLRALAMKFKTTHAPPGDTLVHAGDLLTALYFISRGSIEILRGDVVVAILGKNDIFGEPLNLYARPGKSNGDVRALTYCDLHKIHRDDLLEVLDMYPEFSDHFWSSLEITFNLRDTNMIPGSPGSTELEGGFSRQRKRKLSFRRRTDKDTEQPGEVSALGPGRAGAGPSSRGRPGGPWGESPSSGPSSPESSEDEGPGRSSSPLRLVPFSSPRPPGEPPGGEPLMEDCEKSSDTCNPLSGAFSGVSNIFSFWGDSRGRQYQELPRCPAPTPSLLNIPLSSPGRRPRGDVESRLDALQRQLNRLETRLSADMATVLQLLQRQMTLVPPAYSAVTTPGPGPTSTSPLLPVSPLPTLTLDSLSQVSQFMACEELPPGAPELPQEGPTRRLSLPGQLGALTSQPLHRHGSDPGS

CYP2C19 = CYP2C19 (Homo sapiens, UniProt P33261); test: Inhibition of CYP2C19 (unknown origin) at 10 uM relative to control; assay type: ADME
Chain of CYP2C19 (P33261 whole entry): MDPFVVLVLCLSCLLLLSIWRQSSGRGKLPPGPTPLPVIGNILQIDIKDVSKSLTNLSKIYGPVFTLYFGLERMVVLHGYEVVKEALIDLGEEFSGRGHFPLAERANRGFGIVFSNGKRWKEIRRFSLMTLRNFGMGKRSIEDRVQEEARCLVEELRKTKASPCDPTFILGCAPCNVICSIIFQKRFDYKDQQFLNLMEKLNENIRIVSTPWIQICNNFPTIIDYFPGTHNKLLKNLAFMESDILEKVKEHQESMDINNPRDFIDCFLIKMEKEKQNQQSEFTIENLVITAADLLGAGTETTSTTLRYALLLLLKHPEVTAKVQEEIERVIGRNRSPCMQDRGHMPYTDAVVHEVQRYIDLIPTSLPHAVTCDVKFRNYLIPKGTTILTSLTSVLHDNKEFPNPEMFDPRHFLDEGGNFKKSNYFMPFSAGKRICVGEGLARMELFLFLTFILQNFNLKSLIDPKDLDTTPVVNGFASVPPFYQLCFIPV

[6] = Oral bioavailability in mouse at 5 mg/kg; assay type: ADME, organism-based; conditions: in vivo
[7] = molecular target: Isocitrate dehydrogenase [NADP] cytoplasmic (Homo sapiens, UniProt O75874); test: Inhibition of wild-type IDH1 (unknown origin) by NADPH fluorescence based assay
Chain of Isocitrate dehydrogenase [NADP] cytoplasmic (O75874 whole entry): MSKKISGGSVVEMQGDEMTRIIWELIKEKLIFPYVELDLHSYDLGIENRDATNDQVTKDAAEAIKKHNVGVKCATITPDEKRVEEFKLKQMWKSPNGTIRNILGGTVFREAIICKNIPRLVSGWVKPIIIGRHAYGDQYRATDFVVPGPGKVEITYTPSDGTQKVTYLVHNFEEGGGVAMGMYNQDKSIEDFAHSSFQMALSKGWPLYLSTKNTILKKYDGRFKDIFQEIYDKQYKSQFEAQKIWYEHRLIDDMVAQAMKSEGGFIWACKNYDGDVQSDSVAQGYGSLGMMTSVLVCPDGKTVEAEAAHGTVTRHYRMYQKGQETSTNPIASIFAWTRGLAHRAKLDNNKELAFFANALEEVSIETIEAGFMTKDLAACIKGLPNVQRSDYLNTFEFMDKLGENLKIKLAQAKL

[8] = Apparent permeability from apical side to basolateral side in MDCK cells; assay type: ADME, cell-based, Canis lupus familiaris; conditions: dog
MDR1 (P-gp) [9] = test: Apparent permeability from basolateral side to apical side in MDCK cells harboring MDR1 (unknown origin); assay type: ADME, cell-based, Canis lupus familiaris; conditions: dog
[10] = Total AUC (infinity) in mouse at 1 mg/kg, iv or 5 mg/kg, po; assay type: ADME, organism-based; conditions: in vivo
Mus musculus [11] = test: In vivo inhibition of IDH1 R132C mutant in human HCT116 cells xenografted in po dosed BALB/c nude mouse assessed as reduction in tumor 2-HG level administered at 12 hrs intervals and measured up to 24 hrs post last dose by LC-MS analysis; assay type: functional
Mus musculus [12] = test: In vivo inhibition of IDH1 R132C mutant in human HCT116 cells xenografted in BALB/c nude mouse assessed as reduction in tumor 2-HG level at 25 mg/kg, po bid administered at 12 hrs intervals and measured at <= 12 hrs post last dose by LC-MS analysis relative to control; assay type: functional; conditions: HCT-116, po
[13] = Oral bioavailability in rat at 5 mg/kg; assay type: ADME, organism-based; conditions: in vivo
CYP2D6 = CYP2D6 (Homo sapiens, UniProt P10635); test: Inhibition of CYP2D6 (unknown origin) at 10 uM relative to control; assay type: ADME
Chain of CYP2D6 (P10635 whole entry): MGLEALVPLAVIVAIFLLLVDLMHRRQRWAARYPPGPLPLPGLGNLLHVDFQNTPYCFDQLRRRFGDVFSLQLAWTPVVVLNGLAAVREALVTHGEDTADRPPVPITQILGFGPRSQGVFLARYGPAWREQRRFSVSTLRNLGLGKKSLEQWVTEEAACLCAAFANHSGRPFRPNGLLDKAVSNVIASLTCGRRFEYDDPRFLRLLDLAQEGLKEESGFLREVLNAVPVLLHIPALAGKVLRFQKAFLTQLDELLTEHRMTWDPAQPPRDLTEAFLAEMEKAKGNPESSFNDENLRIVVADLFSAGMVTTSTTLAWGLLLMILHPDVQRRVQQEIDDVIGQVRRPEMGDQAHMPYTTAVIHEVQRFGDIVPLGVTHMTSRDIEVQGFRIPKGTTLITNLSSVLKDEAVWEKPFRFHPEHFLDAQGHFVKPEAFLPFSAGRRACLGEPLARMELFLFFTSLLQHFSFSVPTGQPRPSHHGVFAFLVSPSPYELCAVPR

[14] = Clearance in dog at 0.5 mg/kg, iv; assay type: ADME, organism-based, Canis lupus familiaris; conditions: in vivo
Cytochrome P450 3A4 [15] = molecular target: T1, Cytochrome P450 3A4; test: Time dependent inhibition of CYP3A4 (unknown origin) at <5 uM pre-incubated for 30 mins followed by testosterone substrate addition in absence of NADPH; assay type: ADME
[16] = Free drug concentration in tumor of human HCT116 harboring R132C mutant xenografted in po dosed BALB/c nude mouse administered at 12 hrs intervals and measured after 4 to 24 hrs post last dose; assay type: ADME, organism-based, Neoplasm; conditions: in vivo
Mus musculus [17] = assay type: functional; conditions: BALB/c, HCT-116, po
[18] = Metabolic stability in dog liver microsomes assessed as compound remaining after 30 mins; assay type: ADME, Canis lupus familiaris, Microsome; conditions: read-out: Stability
[19] = Efflux ratio of apparent permeability from basolateral side to apical side over apical side to basolateral side in human Caco2 cells; assay type: ADME, cell-based; conditions: Caco-2
MDR1 (P-gp) [20] = test: Efflux ratio of apparent permeability from basolateral side to apical side over apical side to basolateral side in MDCK cells harboring MDR1 (unknown origin); assay type: ADME, cell-based, Canis lupus familiaris; conditions: dog
[21] = molecular target: Isocitrate dehydrogenase [NADP], mitochondrial (Homo sapiens, UniProt P48735, R172K); test: Inhibition of IDH2 R172K mutant (unknown origin)
Chain of Isocitrate dehydrogenase [NADP], mitochondrial (P48735 40-452 R172K limits assumed): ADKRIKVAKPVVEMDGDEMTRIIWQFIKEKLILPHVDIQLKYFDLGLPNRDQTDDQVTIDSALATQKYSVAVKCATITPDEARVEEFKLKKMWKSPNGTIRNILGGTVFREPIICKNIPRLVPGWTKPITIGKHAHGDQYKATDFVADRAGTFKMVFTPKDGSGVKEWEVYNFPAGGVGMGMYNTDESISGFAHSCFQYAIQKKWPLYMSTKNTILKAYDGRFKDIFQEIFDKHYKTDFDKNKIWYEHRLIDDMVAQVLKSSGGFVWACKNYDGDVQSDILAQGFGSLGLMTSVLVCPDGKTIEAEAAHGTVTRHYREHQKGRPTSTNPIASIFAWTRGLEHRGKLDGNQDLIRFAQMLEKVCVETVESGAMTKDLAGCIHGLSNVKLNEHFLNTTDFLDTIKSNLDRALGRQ

[22] = Metabolic stability in rat liver microsomes assessed as compound remaining after 30 mins; assay type: ADME, Microsome; conditions: read-out: Stability

- half-life [1]: 2.2 h
- TDI (Cytochrome P450 3A4 [2]): Not Active
- AUC(0-inf) [4]: 3.3 µM·h
- inhibition at 10 µM (CYP2C19): 22.7%
- bioavailability [6]: 130%
- IC50 [7]: 35 µM
- Papp A→B [8]: 12.6 ×10⁻⁶ cm/s
- Papp B→A (MDR1 (P-gp) [9]): 9.93 ×10⁻⁶ cm/s
- AUC(0-inf) [10]: 107 µM·h
- bioavailability [13]: 81%
- inhibition at 10 µM (CYP2D6): 10.2%
- clearance [14]: 7.7 mL/min/kg
- TDI (Cytochrome P450 3A4 [15]): Not Active
- Drug uptake(free) [16]: Dose-dependent effect
- remaining at 0.5 h [18]: 94%
- efflux ratio [19]: 1
- efflux ratio (MDR1 (P-gp) [20]): 1.19
- IC50 [21]: 33.8 µM
- remaining at 0.5 h [22]: 94 to 100%
Compound: COc1nc(N[C@@H](C)c2cc3cc(Cl)ccc3[nH]c2=O)ncc1C#N
- fIC50 (Mus musculus [3]): 49 nM
- IC50 [5]: 3.2 µM
- fIC50 (Mus musculus [11]): 46 nM
- inhibition in vivo at 25 mg/kg (Mus musculus [12]): > 90%
- inhibition in vivo at 25 mg/kg (Mus musculus [17]): > 90%
